In the NIST ThermoML archive (doi:10.1016/j.jct.2006.05.008):

Assay: molar heat capacity at constant pressure
Details: 101.33 kPa, Small (less than 1 g) adiabatic calorimetry

CCCCn1cc[n+](C)c1.[Br-] [1-butyl-3-methylimidazolium bromide]
Details | molar heat capacity at constant pressure [J/K/mol]
122.75 K, Glass | 139.07
123.63 K, Crystal | 131.11
124.78 K, Glass | 140.32
125.66 K, Crystal | 132.08
126.82 K, Glass | 141.79
127.7 K, Crystal | 133.1
128.85 K, Glass | 143.22
129.73 K, Crystal | 134.32
130 K, Crystal | 134.3
130.89 K, Glass | 144.53
131.77 K, Crystal | 135.36
132.93 K, Glass | 145.61
133.82 K, Crystal | 136.37
134.98 K, Glass | 147.16
135.86 K, Crystal | 137.63
137.02 K, Glass | 148.47
137.9 K, Crystal | 138.69
139.07 K, Glass | 149.68
139.95 K, Crystal | 139.77
140 K, Crystal | 139.7
141.11 K, Glass | 150.96
142 K, Crystal | 140.95
143.16 K, Glass | 152.33
144.05 K, Crystal | 142.17
145.21 K, Glass | 153.64
146.11 K, Crystal | 143.29
147.27 K, Glass | 154.99
148.17 K, Crystal | 144.04
149.33 K, Glass | 156.22
150 K, Crystal | 145.1
150.23 K, Crystal | 145.16
151.38 K, Glass | 157.56
152.28 K, Crystal | 146.48
153.44 K, Glass | 158.85
154.34 K, Crystal | 147.77
155.5 K, Glass | 160.15
156.4 K, Crystal | 148.83
157.55 K, Glass | 161.46
158.47 K, Crystal | 149.86
159.61 K, Glass | 162.88
160 K, Crystal | 150.5
160.53 K, Crystal | 151.03
161.68 K, Glass | 164.21
162.59 K, Crystal | 152.18
163.74 K, Glass | 165.38
164.66 K, Crystal | 153.33
165.8 K, Glass | 166.7
166.73 K, Crystal | 154.42
167.87 K, Glass | 168.08
168.79 K, Crystal | 155.67
169.93 K, Glass | 169.45
170 K, Crystal | 156
170.86 K, Crystal | 156.71
172 K, Glass | 170.75
172.93 K, Crystal | 157.83
174.07 K, Glass | 172.09
175 K, Crystal | 159
176.14 K, Glass | 173.39
177.07 K, Crystal | 160.17
178.21 K, Glass | 174.81
179.15 K, Crystal | 161.41
180 K, Crystal | 161.6
180.29 K, Glass | 176.19
181.23 K, Crystal | 162.53
182.37 K, Glass | 177.61
183.3 K, Crystal | 163.73
184.44 K, Glass | 178.88
185.38 K, Crystal | 164.89
186.51 K, Glass | 180.34
187.45 K, Crystal | 166.26
188.59 K, Glass | 181.72
189.53 K, Crystal | 167.35
190 K, Crystal | 167.4
190.66 K, Glass | 183.15
191.61 K, Crystal | 168.45
192.74 K, Glass | 184.62
193.69 K, Crystal | 169.62
194.82 K, Glass | 186.01
195.77 K, Crystal | 170.97
196.9 K, Glass | 187.63
197.85 K, Crystal | 172.33
198.98 K, Glass | 189.28
199.93 K, Crystal | 173.55
200 K, Crystal | 173.4
201.07 K, Glass | 191
202.01 K, Crystal | 174.87
203.15 K, Glass | 192.74
204.09 K, Crystal | 176.17
205.24 K, Glass | 194.6
206.18 K, Crystal | 177.52
207.34 K, Glass | 196.57
208.26 K, Crystal | 178.87
209.44 K, Glass | 199.14
210 K, Crystal | 179.9
210.34 K, Crystal | 180.27
211.54 K, Glass | 201.34
212.44 K, Crystal | 181.75
213.66 K, Glass | 205.71
214.52 K, Crystal | 183.24
215.75 K, Glass | 211.67
216.61 K, Crystal | 184.62
217.78 K, Glass | 223.22
218.7 K, Crystal | 186.06
219.71 K, Glass | 249.71
220 K, Crystal | 186.6
220.79 K, Crystal | 187.32
222.88 K, Crystal | 188.66
224.97 K, Crystal | 190.05
225.62 K, Liquid | 289.04
227.06 K, Crystal | 191.53
227.7 K, Liquid | 289.5
229.15 K, Crystal | 192.85
229.79 K, Liquid | 290.01
230 K, Crystal | 193.1
231.24 K, Crystal | 194.13
231.89 K, Liquid | 290.69
233.34 K, Crystal | 195.6
233.98 K, Liquid | 291.24
235.43 K, Crystal | 196.86
236.07 K, Liquid | 291.65
237.53 K, Crystal | 198
238.17 K, Liquid | 292.05
239.63 K, Crystal | 199.44
240 K, Crystal | 199.5
240.26 K, Liquid | 292.64
241.72 K, Crystal | 200.93
242.35 K, Liquid | 293.21
243.82 K, Crystal | 202.36
244.44 K, Liquid | 293.89
245.93 K, Crystal | 203.67
246.54 K, Liquid | 294.81
248.03 K, Crystal | 205.09
248.64 K, Liquid | 295.35
250 K, Crystal | 206.2
250.12 K, Crystal | 206.58
250.73 K, Liquid | 296.1
252.22 K, Crystal | 208.01
252.83 K, Liquid | 296.76
254.32 K, Crystal | 209.53
256.43 K, Crystal | 211.04
258.53 K, Crystal | 212.45
260 K, Crystal | 213.2
260.63 K, Crystal | 213.97
262.74 K, Crystal | 215.49
264.84 K, Crystal | 217.16
266.93 K, Crystal | 218.74
269.03 K, Crystal | 220.2
270 K, Crystal | 220.8
271.12 K, Crystal | 222.15
273.22 K, Crystal | 223.99
275.33 K, Crystal | 225.35
277.43 K, Crystal | 227.05
279.55 K, Crystal | 228.43
280 K, Crystal | 228.4
281.65 K, Crystal | 230.01
283.76 K, Crystal | 231.57
285.86 K, Crystal | 232.75
287.97 K, Crystal | 234.48
290 K, Crystal | 235.8
290.08 K, Crystal | 236.13
292.19 K, Crystal | 237.64
294.31 K, Crystal | 239.37
296.42 K, Crystal | 241.14
298.15 K, Crystal | 241.8
298.54 K, Crystal | 243.38
300 K, Crystal | 243.1
300.66 K, Crystal | 245.13
302.78 K, Crystal | 247.98
304.91 K, Crystal | 249.78
308.84 K, Crystal | 254.23
310 K, Crystal | 250.4
312.32 K, Crystal | 258.72
314.44 K, Crystal | 261.85
320 K, Crystal | 257.8
330 K, Crystal | 265.1
340 K, Crystal | 272.5
350 K, Crystal | 279.8
351.35 K, Crystal | 280.8
351.35 K, Liquid | 332.6
355.98 K, Liquid | 334.82
359.86 K, Liquid | 336.11
360 K, Liquid | 336.3
362.1 K, Liquid | 338.41
364.36 K, Liquid | 339.33
366.64 K, Liquid | 339.84
370 K, Liquid | 340.9
